Results as given in EP2301627A1, “Novel antimalarial 3-azabicyclo[3.2.2]nonane derivatives” (University of Graz, priority 2009, dated 2011).
Where “and” joins values, the source holds several entries; their conditions need not be identical. Equal entries are not always repeated. Where two headings read alike, the source gives them in different places. Values belong to the compound of their own block, whether it stands above or below them.

How the values were obtained:
[1] = tested on: K1 strain of P. falciparum (resistant to chloroquine and pyrimethamine); assay: in vitro screening against Plasmodium falciparum, [3H]-hypoxanthine incorporation assay; format: cell-based; settings: read-out: IC50 P.falc.
Protocol: Antiplasmodial activity is determined using the K1 strain of P. falciparum (resistant to chloroquine and pyrimethamine). A modification of the [^3H]-hypoxanthine incorporation assay is used [Matile H, Pink JRL. in: Lefkovits I. and Pernis B. (Eds.). Immunological Methods, Academic Press, San Diego, 1990, 221-234.]. Briefly, infected human red blood cells in RPMI 1640 medium with 5% Albumax are exposed to serial drug dilutions in microtiter plates for 48 hours. Viability is assessed by measuring the incorporation of [^3H]-hypoxanthine by liquid scintillation counting 24 hours after the addition of the radiolabel. The counts are expressed as percentage of the control cultures, sigmoidal inhibition curves are drawn and IC50 values calculated.

[2] = tested on: T. b. rhodesiense STIB 900; assay: in vitro screening against Trypanosoma brucei rhodesiense, Alamar Blue assay; format: cell-based; settings: read-out: IC50 T.rho.
Protocol: Minimum Essential Medium (50 µl) supplemented according to Baltz et al. [Baltz T, Baltz D, Giroud C, Crockett J. EMBO J., 1985, 4: 1273-1277] with 2-mercaptoethanol and 15% heat-inactivated horse serum is added to each well of a 96-well microtiter plate. Serial drug dilutions are added to the wells. Then 50 µl of trypanosome suspension (T. b. rhodesiense STIB 900) is added to each well and the plate incubated at 37°C under a 5% CO2 atmosphere for 72 hours. Alamar Blue (10 µl) is then added to each well and incubation continued for a further 2-4 hours. The plate is then read with a Millipore Cytofluor 2300 using an excitation wavelength of 530 nm and emission wavelength of 590 nm [Räz B, Iten M, Grether-Bühler Y, Kaminsky R, Brun R. Acta Trop., 1997, 68: 139-147]. Fluorescence development is expressed as percentage of the control, and IC50 values determined. Cytotoxicity is assessed using the same assay and L-6 cells.

L-6 cells = assay: Cytotoxicity, same Alamar Blue assay with L-6 cells; format: cell-based; settings: Rattus norvegicus
Protocol: Serial drug dilutions are added to the wells. Then 50 µl of trypanosome suspension (T. b. rhodesiense STIB 900) is added to each well and the plate incubated at 37°C under a 5% CO2 atmosphere for 72 hours. Alamar Blue (10 µl) is then added to each well and incubation continued for a further 2-4 hours. […] Fluorescence development is expressed as percentage of the control, and IC50 values determined. Cytotoxicity is assessed using the same assay and L-6 cells.

P. berghei ANKA strain = assay: in vivo screening against Plasmodium berghei in mice; settings: for MSD P. berghei: mean survival day; for Activity %: percent reduction of parasitemia vs control
Protocol: • Method of infection of animals: • Male mice (Fü albino; specific pathogen free) weighing 20± 2g are infected intravenously with 2x10^7 P. berghei ANKA strain-infected erythrocytes from donor mice on day 0 of the experiment. […] Parasitemia is determined microscopically by counting 1000 red blood cells. • For low parasitemias (<1%) 2000 rbc's have to be counted. The difference between the mean value for the control group (taken as 100%) and that for each experimental group is calculated and expressed as percent reduction (=activity). • The mean survival day (MSD, in days) is recorded as well as observations concerning side effects of the drug.

[3] = Erythrocyte, K1 strain, infected human red blood cells, 48 hours drug exposure
[4] = L6, L-6 cells, read-out: IC50 Cytox

Compound: c1ccc([C@@H]2CC3(N4CCCC4)CNCC2[C@H](c2ccccc2)C3)cc1 (racemic) [Example 1, (6RS,9RS)-(±)-6,9-Diphenyl-1-pyrrolidino-3-azabicyclo[3.2.2]nonane]
IC50 [1, 3]: 0.095 µM
IC50 ([2]; STIB 900, 72 hours incubation): 1 µM
IC50 (L-6 cells; [4]): 72.9 µM
MSD P. berghei (P. berghei ANKA strain; ip 4x10mg/kg): 4 days
Activity % (P. berghei ANKA strain; ip 4x10mg/kg): 25.06%
MSD P. berghei (P. berghei ANKA strain; ip 4x20mg/kg): 10 days
Activity % (P. berghei ANKA strain; ip 4x20mg/kg): 60.11%
MSD P. berghei (P. berghei ANKA strain; ip 4x50mg/kg): 12.3 days and 15 days
Activity % (P. berghei ANKA strain; ip 4x50mg/kg): 94.32% and 94.77%
MSD P. berghei (P. berghei ANKA strain; po 1x100mg/kg): 12 days
Activity % (P. berghei ANKA strain; po 1x100mg/kg): 70.52%
side effects of the drug (P. berghei ANKA strain; po 1x200mg/kg): toxic
MSD P. berghei (P. berghei ANKA strain; po 1x200mg/kg): 16 days
Activity % (P. berghei ANKA strain; po 1x200mg/kg): 66.13%
MSD P. berghei (P. berghei ANKA strain; po 4x100mg/kg): 18.6 days
Activity % (P. berghei ANKA strain; po 4x100mg/kg): 97.7%

Compound: C[C@@H]1CC[C@H]2[C@@H](C)C(=O)O[C@@H]3O[C@@]4(C)CC[C@@H]1[C@]32OO4 [Artemisinin]
IC50 [1, 3]: 0.0064 µM
IC50 (L-6 cells; [4]): 450 µM

Compound: CCN(CC)CCCC(C)Nc1ccnc2cc(Cl)ccc12 (stereo not shown) [Chloroquine, reference compound]
IC50 ([1]; K1, Erythrocyte, 48 h): 0.12 µM
IC50 (L-6 cells; L6, read-out: IC50 Cytox): 188 µM
MSD P. berghei (P. berghei ANKA strain; ip 4x10mg/kg): 20 days
Activity % (P. berghei ANKA strain; ip 4x10mg/kg): 99.6%
MSD P. berghei (P. berghei ANKA strain; po 4x10mg/kg): 20 days
Activity % (P. berghei ANKA strain; po 4x10mg/kg): 99.6%

Compound: Nc1nc(N)nc(Nc2ccc([As]3SCC(CO)S3)cc2)n1 (stereo not shown) [Melarsoprol]
IC50 ([2]; 72 h): 0.0039 µM
IC50 (L-6 cells; L6, read-out: IC50 Cytox): 7.78 µM

IC50 ([2]; STIB 900, 72 hours incubation): 0.0075 µM
Compound: N=C(N)c1ccc(OCCCCCOc2ccc(C(=N)N)cc2)cc1 [Pentamidine]
IC50 (L-6 cells; [4]): 4720 µM
